The source of these data is patent US20170107207A1, “AMINOPYRAZOLONE DERIVATIVE” (DAIICHI SANKYO COMPANY, LIMITED, priority 2014, published 2017).

Type in all cases: cell-based
In experiment [1] the test system is HCC1954. Description: Cell growth inhibition test, HCC1954. Particulars: Homo sapiens, 72 h; HCC1954, Breast cancer, 3 days, CellTiter-Glo. As for the experimental part: (§1) A cell growth inhibition test was carried out by treating a cultured cancer cell line with a test compound for a given period and then counting the number of viable cells by CellTiter-Glo Luminescent Cell Viability Assay (manufactured by Promega Corp.).
(§2) The following cells were inoculated to a 384-well plate containing the compound prepared in advance at predetermined concentrations. […]
(§3) The cells thus inoculated were cultured at 37° C. for 3 days under 5% CO2. […] Then, luminescence intensity was measured using a plate reader.
(§4) The number of viable cells and luminescence intensity have been confirmed to correlate with each other. Therefore, the rate of cell growth was calculated according to the following expression: Rate of cell growth (T/C %) of a test compound-supplemented well=100×[(B−C)/(A−C)] wherein A represents the luminescence intensity (final culture date) of a test compound-free well; B represents the luminescence intensity (final culture date) of a test compound-containing well; and C represents the luminescence intensity (day of cell inoculation) of a well at the start of contact of the cells with the test compound.
(§5) T/C % at the concentration of each of the serially diluted test compounds was determined. […]

Experiment [2] concerns CAL-51. Description: Cell growth inhibition test, CAL-51. The note with it: Homo sapiens, 72 h; CAL-51, Breast cancer, 3 days, CellTiter-Glo. The procedure:
as §1, §2, §3, §4, §5

For experiment [3], the system named is SK-BR-3. As to the kind of experiment: Cell growth inhibition test, SK-BR-3. The note with it: Homo sapiens, 72 h; SK-BR-3, Breast cancer, 3 days, CellTiter-Glo. As for the experimental part:
as §1, §2, §3, §4, §5
A general note: Cellular ATP, detected with luciferase, serves as a proxy for viable cell number.

Experiment [4] relates to BT-20. Description: Cell growth inhibition test, BT-20. Particulars: Homo sapiens, 72 h; BT-20, Breast cancer, 3 days, CellTiter-Glo. The procedure:
as §1, §2, §3, §4, §5

Experiment [5] has as its system U-138 MG. Description: Cell growth inhibition test, U-138 MG. The note with it: Homo sapiens, U138-MG, 72 h, Brain tumor Central Nerve System, 3 days, CellTiter-Glo. The procedure: as §1, §2, §3, §4, §5
For experiment [6], the system named is SW620. Description: Cell growth inhibition test, SW620. Particulars: Homo sapiens, SW-620, 72 h; SW620, Large intestine cancer, 3 days, CellTiter-Glo. As for the experimental part: as §1, §2, §3, §4, §5
Experiment [7] concerns SW948. Description: Cell growth inhibition test, SW948. Particulars: Homo sapiens, 72 h; SW948, Large intestine cancer, 3 days, CellTiter-Glo. The procedure:
as §1, §2, §3, §4, §5

For experiment [8], the system named is RL952. As to the kind of experiment: Cell growth inhibition test, RL952. Particulars: Homo sapiens, RL95-2, 72 h; RL952, Endometrial cancer, 3 days, CellTiter-Glo. The procedure:
as §1, §2, §3, §4, §5

Experiment [9] concerns SNU-1. As to the kind of experiment: Cell growth inhibition test, SNU-1. The note with it: Homo sapiens, SNU1, 72 h; SNU-1, Stomach cancer, 3 days, CellTiter-Glo. The procedure:
as §1, §2, §3, §4, §5

Experiment [10] relates to NCI-N87. Description: Cell growth inhibition test, NCI-N87. Particulars: Homo sapiens, 72 h; NCI-N87, Stomach cancer, 3 days, CellTiter-Glo. As for the experimental part:
as §1, §2, §3, §4, §5

Experiment [11] deals with FaDu. Description: Cell growth inhibition test, FaDu. The note with it: Homo sapiens, 72 h, Head and neck cancer, 3 days, CellTiter-Glo. As for the experimental part: as §1, §2, §3, §4, §5
Experiment [12] has as its system MOLT-3. Description: Cell growth inhibition test, MOLT-3. The note with it: Homo sapiens, 72 h; MOLT-3, Leukemia, 3 days, CellTiter-Glo. As for the experimental part:
as §1, §2, §3, §4, §5

Experiment [13] has as its system MOLT-4. As to the kind of experiment: Cell growth inhibition test, MOLT-4. The note with it: Homo sapiens, 72 h; MOLT-4, Leukemia, 3 days, CellTiter-Glo. As for the experimental part:
as §1, §2, §3, §4, §5

Experiment [14] deals with K-562. As to the kind of experiment: Cell growth inhibition test, K-562. The note with it: Homo sapiens, K562, 72 h; K-562, Leukemia, 3 days, CellTiter-Glo. The procedure:
as §1, §2, §3, §4, §5

Experiment [15] relates to KARPAS 422. Description: Cell growth inhibition test, KARPAS 422. The note with it: Homo sapiens, 72 h; KARPAS 422, Lymphoma, 3 days, CellTiter-Glo. The procedure:
as §1, §2, §3, §4, §5

For experiment [16], the system named is COR-L23. As to the kind of experiment: Cell growth inhibition test, COR-L23. Particulars: Homo sapiens, 72 h; COR-L23, Lung cancer, 3 days, CellTiter-Glo. The procedure:
as §1, §2, §3, §4, §5

Experiment [17] relates to A549. As to the kind of experiment: Cell growth inhibition test, A549. The note with it: Homo sapiens, 72 h; A549, Lung cancer, 3 days, CellTiter-Glo. As for the experimental part:
as §1, §2, §3, §4, §5

The test system of experiment [18] is PC-3. As to the kind of experiment: Cell growth inhibition test, PC-3. The note with it: Homo sapiens, 72 h; PC-3, Prostate cancer, 3 days, CellTiter-Glo. As for the experimental part: as §1, §2, §3, §4, §5
The subject of experiment [19] is A-431. Description: Cell growth inhibition test, A-431. The note with it: Homo sapiens, 72 h; A-431, Skin cancer, 3 days, CellTiter-Glo. The procedure:
as §1, §2, §3, §4, §5

One may read the GI50 as the concentration at which growth is held to half of that of the control.

`CCOc1cc(F)c(Cl)cc1C(=O)NCC(C)(C)CC(=O)Nc1c(COC)n(C)n(-c2ccccc2)c1=O` [Example 113, 5-Chloro-2-ethoxy-4-fluoro-N-(4-{[5-(methoxymethyl)-1-methyl-3-oxo-2-phenyl-2,3-dihydro-1H-pyrazol-4-yl]amino}-2,2-dimethyl-4-oxobutyl)benzamide]: the GI50 in [1] turned out to be 720 nM; in experiment [2], 620 nM; in experiment [3], 650 nM; in experiment [4], 850 nM; in experiment [5], 1000 nM; in experiment [6], 910 nM. Besides, the GI50 in experiment [7] came to 1400 nM; in experiment [8], 870 nM; in experiment [9], 580 nM; in [10], 530 nM; in [11], 350 nM; in experiment [12], 150 nM. Further, the GI50 in experiment [13] amounted to 160 nM; in experiment [14] it was 630 nM; in experiment [15] it was 450 nM; in experiment [16] it was 420 nM; in experiment [17], 1100 nM; in [18], 1400 nM. In [19], this molecule gave a GI50 of 390 nM.
`CCOc1ncc(Cl)cc1C(=O)NCC(C)(C)CC(=O)Nc1c([C@H](C)CN(C)C)n(C)n(-c2ccccc2)c1=O` [Example 73, 5-Chloro-N-[4-({5-[(1R)-2-(dimethylamino)-1-methylethyl]-1-methyl-3-oxo-2-phenyl-2,3-dihydro-1H-pyrazol-4-yl}amino)-2,2-dimethyl-4-oxobutyl]-2-ethoxypyridine-3-carboxamide]: the GI50 in experiment [1] is 920 nM; in experiment [2], 1300 nM; in experiment [3] it was 1000 nM; in experiment [4], 1300 nM; in experiment [5] it was 1000 nM; in [6] it was 1600 nM. For the same molecule, the GI50 in [7] worked out at 4200 nM; in experiment [8], 890 nM; in experiment [9] it was 710 nM; in experiment [10] it was 660 nM; in experiment [11] it was 460 nM; in [12], 190 nM. Further, the GI50 was determined as 180 nM in [13]; 560 nM in experiment [14]; 350 nM in experiment [15]; 550 nM in experiment [16]; 2000 nM in experiment [17]; 1500 nM in experiment [18]. The GI50 in [19] was found to be 540 nM.
For `CCOc1ccc(Cl)cc1C(=O)NCC(C)(C)CC(=O)Nc1c([C@H](C)CN(C)C)n(C)n(-c2ccccc2)c1=O` [Example 68, 5-Chloro-N-[4-({5-[(1R)-2-(dimethylamino)-1-methylethyl]-1-methyl-3-oxo-2-phenyl-2,3-dihydro-1H-pyrazol-4-yl}amino)-2,2-dimethyl-4-oxobutyl]-2-ethoxybenzamide], the GI50 in experiment [1] is 340 nM; in experiment [2], 800 nM; in [3], 520 nM; in [4], 590 nM; in experiment [5] it was 670 nM; in [6], 840 nM. The GI50 in [7] came out at 3900 nM; in experiment [8], 530 nM; in experiment [9] it was 230 nM; in experiment [10], 270 nM; in experiment [11] it was 210 nM; in [12], 110 nM. Besides, the GI50 in experiment [13] was 130 nM; in experiment [14] it was 240 nM; in experiment [15], 200 nM; in experiment [16], 200 nM; in [17], 910 nM; in experiment [18], 1400 nM. The molecule further had a GI50 in experiment [19] of 210 nM.
